These results are taken from patent publication US10953012B2, “Heterocyclic compounds for the inhibition of pask” (BioEnergenix LLC, priority 2011, dated 2021).

Chain of PASK (Q96RG2 999-1251): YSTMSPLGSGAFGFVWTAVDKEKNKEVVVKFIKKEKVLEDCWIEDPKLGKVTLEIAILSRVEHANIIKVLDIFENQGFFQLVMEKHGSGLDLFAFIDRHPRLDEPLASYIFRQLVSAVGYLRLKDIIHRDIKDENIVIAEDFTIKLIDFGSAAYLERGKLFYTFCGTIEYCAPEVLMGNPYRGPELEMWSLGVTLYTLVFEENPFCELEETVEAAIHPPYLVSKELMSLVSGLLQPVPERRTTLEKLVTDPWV

The target of the assay is PASK (Homo sapiens (Human), UniProt Q96RG2). Briefly: PAS Kinase FRET Assay. To be noted: TR-FRET assay; read-out: IC50 Kinase Domain. The assay is classed as biochemical. An excerpt:
The aim of the FRET assay is to determine the inhibition potential of test compounds on targeted kinase. This assay platform provides a homogenous screening method for measuring kinase activity by quantitating the amount of phospho-substrate in solution following a kinase reaction.
In the presence of kinase and ATP, the Ulight-peptide is phosphorylated and captured by an anti-phospho-substrate antibody, which brings the Eu chelate donor and Ulight acceptor dyes into close proximity. Upon excitation at 340 nm, the Eu chelate transfers its energy to the Ulight dye, resulting in a fluorescent light emission at 665 nm
Titration of kinase at 1 mM ATP was achieved via the following protocol. After making serial three-fold dilutions of PASK (Invitrogen) in reaction buffer across the plate; 5 μl of kinase dilution and 5 μl substrate/ATP mix were added to the wells of the white Optiplate-384 (PerkinElmer). The contents of the plate were and incubated at RT for 1 h. The reaction was stopped by adding 5 μl of stop solution to each test well followed by mixing and incubation at RT for 10 minutes. 5 μl of detection mix (detection antibody diluted in detection buffer) was added; the contents of the plate were mixed and then incubated in the dark for 1 hour at RT. The signal was recorded at TR-FRET mode (665 nm/615 nm). The results were graphed to calculate the EC50.
Titration of ATP at the EC50 concentration of kinase to determine ATP Km, app. was performed using the following method. After making serial dilutions of ATP (Invitrogen), 5 μl of ATP dilution and 5 μl substrate/kinase mix were added to the wells of the white Optiplate-384 (PerkinElmer). The contents of the plate were and incubated at RT for 1 h. The reaction was stopped by adding 5 μl of stop solution to each test well followed by mixing and incubation at RT for 10 minutes. 5 μl of detection mix (detection antibody diluted in detection buffer) was added; the contents of the plate were mixed and then incubated in the dark for 1 hour at RT. The signal was recorded at TR-FRET mode (665 nm/615 nm). The results were graphed to calculate the EC50 as the ATP Km, app.
Compound screening was done via the following method. 10 mM stock solution of test compound in DMSO was prepared by dissolving test compound in DMSO at RT for 1 hour, and then sonicating at 100% output for 8 minutes. If compound is not soluble under this condition, it was diluted to 3 mM. Kinase reaction buffer was prepared containing 10 mM MgCl2, 50 mM HEPES, 1 mM EGTA, 0.01% TWEEN-20, 2 mM DTT. Serial dilutions of the test compounds were prepared at 4×final assay concentrations using Freedom EVO200® dispensing system as follows: 12×10^−5 M, 4×10^−5 M, 1.33×10^−5 M, 4.44×10^−6 M, 1.48×10^−6 M, 4.92×10^−7 M, 1.65×10^−7 M, […], 1.82×10^−8M, 6.09×10^−9, 2.03×10^−9 M. Test compounds (2.5 μl at 4× the final assay concentration) was added to wells using Freedom EVO200® dispensing system. As a positive control, 2.5 μl of positive compound was added to assay wells, and 2.5 μl of DMSO to assay wells as vehicle control. Kinase solution was prepared in reaction buffer at 2×final assay concentration. Kinase solution (5 μl) was added to each well of the assay plate. The substrate and ATP solution was prepared in kinase reaction buffer at 4×final assay concentration. The kinase reaction was started by adding 2.5 μl of substrate+ATP mix solution to each well of the assay plate. The plate is mixed on a plate shaker; then covered and allowed to react for 2 hours in the dark at 25° C. without shaking. The reaction was stopped by adding 5 μl of stop solution to each test well followed by mixing and incubation at RT for 10 minutes in the dark. 5 μl of detection mix (detection antibody diluted in detection buffer) was added; the contents of the plate were mixed and then incubated in the dark for 1 hour at RT. The signal was recorded at TR-FRET mode (665 nm/615 nm).
For the molecule `Cc1coc2ccc(-c3cc(=O)n4ncc(-c5ccccn5)c4[nH]3)cc12` [Example 167, 5-(3-Methylbenzofuran-5-yl)-3-(pyridin-2-yl)pyrazolo[1,5-a]pyrimidin-7(4H)-one], the IC50 is not above 10 µM. As to `Cc1coc2ccc(-c3cc(=O)n4nc(O)c(-c5ccccn5)c4[nH]3)cc12` [Example 168, 2-Hydroxy-5-(3-methylbenzofuran-5-yl)-3-(pyridin-2-yl)pyrazolo[1,5-a]pyrimidin-7(4H)-one], the IC50 was not above 10 µM. Consider `Cc1cc2cc(-c3cc(=O)n4ncc(-c5ccccn5)c4[nH]3)ccc2o1` [Example 169, 5-(2-Methylbenzofuran-5-yl)-3-(pyridin-2-yl)pyrazolo[1,5-a]pyrimidin-7(4H)-one], for which the IC50 was not above 10 µM.

Turning to `Cc1cc2cc(-c3cc(=O)n4nc(N)c(-c5ccccn5)c4[nH]3)ccc2o1` [Example 170, 2-Amino-5-(2-methylbenzofuran-5-yl)-3-(pyridin-2-yl)pyrazolo[1,5-a]pyrimidin-7(4H)-one], the half-inhibitory concentration (IC50) was not above 10 µM. `Nc1nn2c(=O)cc(-c3ccc(C(F)(F)F)cc3)[nH]c2c1-c1ccccn1` [Example 172, 2-amino-3-(pyridin-2-yl)-5-(4-(trifluoromethyl)phenyl)pyrazolo[1,5-a]pyrimidin-7(411)-one]: the half-inhibitory concentration (IC50) was not above 10 µM. The value for `O=c1cc(-c2ccc(C(F)(F)F)cc2)[nH]c2c(-c3ccccn3)cnn12` [Example 173, 3-(Pyridin-2-yl)-5-(4-(trifluoromethyl)phenyl)pyrazolo[1,5-a]pyrimidin-7(4H)-one] was not above 10 µM; that for `Nc1nn2c(=O)cc(-c3cccc(F)c3)[nH]c2c1-c1ccccn1` [Example 174, 2-Amino-5-(3-fluorophenyl)-3-(pyridin-2-yl)pyrazolo[1,5-a]pyrimidin-7(4H)-one] was not above 10 µM; that for `O=c1cc(-c2cccc(F)c2)[nH]c2c(-c3ccccn3)cnn12` [Example 175, 5-(3-Fluorophenyl)-3-(pyridin-2-yl)pyrazolo[1,5-a]pyrimidin-7(4H)-one] was not above 10 µM.

Turning to `Nc1nn2c(=O)cc(-c3ccc(F)cc3F)[nH]c2c1-c1ccccn1` [Example 176, 2-Amino-5-(2,4-difluorophenyl)-3-(pyridin-2-yl)pyrazolo[1,5-a]pyrimidin-7(4H)-one], the half-inhibitory concentration (IC50) is not above 10 µM. Consider `O=c1cc(-c2ccc(F)cc2F)[nH]c2c(-c3ccccn3)cnn12` [Example 177, 5-(2,4-Difluorophenyl)-3-(pyridin-2-yl)pyrazolo[1,5-a]pyrimidin-7(4H)-one], for which the IC50 was not above 10 µM. In the case of `CCCNC(=O)c1c(N)nn2c(=O)cc(-c3ccc4c(c3)OCO4)[nH]c12` [Example 178, 2-Amino-5-(benzo[d][1,3]dioxol-5-yl)-7-oxo-N-propyl-4,7-dihydropyrazolo[1,5-a]pyrimidine-3-carboxamide], the IC50 is not above 10 µM. As to `CCC(=O)Nc1nn2c(=O)cc(-c3ccc4c(c3)OCO4)[nH]c2c1-c1ccccn1` [Example 180, N-(5-(Benzo[d][1,3]dioxol-5-yl)-7-oxo-3-(pyridin-2-yl)-4,7-dihydropyrazolo[1,5-a]pyrimidin-2-yl)propionamide], the IC50 is not above 10 µM. Take `CC(C)C(=O)Nc1nn2c(=O)cc(-c3ccc4c(c3)OCO4)[nH]c2c1-c1ccccn1` [Example 181, N-(5-(Benzo[d][1,3]dioxol-5-yl)-7-oxo-3-(pyridin-2-yl)-4,7-dihydropyrazolo[1,5-a]pyrimidin-2-yl)isobutyramide]: the IC50 was not above 10 µM. For `CC(=O)Nc1nn2c(=O)cc(-c3ccc4[nH]ncc4c3)[nH]c2c1-c1ccccn1` [Example 182, N-(5-(1H-Indazol-5-yl)-7-oxo-3-(pyridin-2-yl)-4,7-dihydropyrazolo[1,5-a]pyrimidin-2-yl)acetamide], the 50% inhibitory concentration (IC50) was not above 10 µM.

In the case of `CCc1nn2c(=O)cc(-c3ccc4[nH]ncc4c3)[nH]c2c1-c1ccccn1` [Example 183, 2-Ethyl-5-(1H-indazol-5-yl)-3-(pyridin-2-yl)pyrazolo[1,5-a]pyrimidin-7(4H)-one], the IC50 is not above 10 µM. The value for `Cn1ncc2cc(-c3cc(=O)n4nc(N)c(-c5ccccn5)c4[nH]3)ccc21` [Example 184, 2-Amino-5-(1-methyl-1H-indazol-5-yl)-3-(pyridin-2-yl)pyrazolo[1,5-a]pyrimidin-7(4H)-one] was not above 10 µM. The value for `Cc1nn2c(=O)cc(-c3ccc4[nH]nnc4c3)[nH]c2c1Cc1ccccc1` [Example 185, 5-(1H-Benzo[d][1,2,3]triazol-5-yl)-3-benzyl-2-methylpyrazolo[1,5-a]pyrimidin-7(4H)-one] was not above 10 µM. For the molecule `Cn1ncc2cc(-c3cc(=O)n4ncc(-c5ccccn5)c4[nH]3)ccc21` [Example 186, 5-(1-Methyl-1H-indazol-5-yl)-3-(pyridin-2-yl)pyrazolo[1,5-a]pyrimidin-7(4H)-one], the IC50 was not above 10 µM.

Turning to `O=c1cc(-c2ccc3[nH]ncc3c2)[nH]c2c(-c3ccccn3)c(O)nn12` [Example 187, 2-Hydroxy-5-(1H-indazol-5-yl)-3-(pyridin-2-yl)pyrazolo[1,5-a]pyrimidin-7(4H)-one], the IC50 is not above 10 µM. For `Cc1n[nH]c2ccc(-c3cc(=O)n4nc(N)c(-c5ccccn5)c4[nH]3)cc12` [Example 188, 2-Amino-5-(3-methyl-1H-indazol-5-yl)-3-(pyridin-2-yl)pyrazolo[1,5-a]pyrimidin-7(4H)-one], the IC50 was not above 10 µM.

For the molecule `Cc1n[nH]c2ccc(-c3cc(=O)n4ncc(-c5ccccn5)c4[nH]3)cc12` [Example 189, 5-(3-Methyl-1H-indazol-5-yl)-3-(pyridin-2-yl)pyrazolo[1,5-a]pyrimidin-7(4H)-one], the half-inhibitory concentration (IC50) was not above 10 µM. As to `CCc1nn2c(=O)cc(-c3ccc(Cl)cc3)[nH]c2c1-c1ccccn1` [Example 190, 5-(4-Chlorophenyl)-2-ethyl-3-(pyridin-2-yl)pyrazolo[1,5-a]pyrimidin-7(4H)-one], the half-inhibitory concentration (IC50) is not above 10 µM. For the molecule `O=c1cc(-c2ccc3[nH]nnc3c2)[nH]c2c(-c3ccccn3)cnn12` [Example 192, 5-(1H-Benzo[d][1,2,3]triazol-5-yl)-3-(pyridin-2-yl)pyrazolo[1,5-a]pyrimidin-7(4H)-one], the half-inhibitory concentration (IC50) was not above 10 µM.

On to `Cn1nnc2cc(-c3cc(=O)n4nc(N)c(-c5ccccn5)c4[nH]3)ccc21` [Example 194, 2-Amino-5-(1-methyl-1H-benzo[d][1,2,3]triazol-5-yl)-3-(pyridin-2-yl)pyrazolo[1,5-a]pyrimidin-7(4H)-one], for which the concentration for half-maximal inhibition (IC50) was not above 10 µM. The same measure for `Cn1nnc2cc(-c3cc(=O)n4ncc(-c5ccccn5)c4[nH]3)ccc21` [Example 195, 5-(1-Methyl-1H-benzo[d][1,2,3]triazol-5-yl)-3-(pyridin-2-yl)pyrazolo[1,5-a]pyrimidin-7(4H)-one]: not above 10 µM; for `CCc1nn2c(=O)cc(-c3ccc4c(cnn4C)c3)[nH]c2c1-c1ccccn1` [Example 196, 2-Ethyl-5-(1-methyl-1H-indazol-5-yl)-3-(pyridin-2-yl)pyrazolo[1,5-a]pyrimidin-7(4H)-one]: not above 10 µM. As to `Cc1nn2c(=O)cc(-c3ccc4[nH]nnc4c3)[nH]c2c1-c1ccccn1` [Example 200, 5-(1H-Benzo[d][1,2,3]triazol-5-yl)-2-methyl-3-(pyridin-2-yl)pyrazolo[1,5-a]pyrimidin-7(4H)-one], the IC50 is not above 10 µM. Turning to `CC(=O)Nc1nn2c(=O)cc(-c3ccc4[nH]nnc4c3)[nH]c2c1-c1ccccn1` [Example 202, N-(5-(1H-Benzo[d][1,2,3]triazol-5-yl)-7-oxo-3-(pyridin-2-yl)-4,7-dihydropyrazolo[1,5-a]pyrimidin-2-yl)acetamide], the IC50 was not above 10 µM.
